Entries after “also recorded” stand apart in the source; their conditions may differ.
Columns and labels:
[1] = tested on: cortical neurons isolated from embryonic day 18 rats; experiment: glutamate-induced neuronal death in cultured cortical neurons; format: cell-based, rat; conditions: 24 hours pre-treatment, 300 uM glutamate for 24 hours
Description: Primary cultured cells were used as a model to evaluate the subject small molecule effect on CNS. Glutamate neurotoxicity can be most directly studied using neurons prepared from the brain at the late embryonic stage and subsequently cultured for maturation. To examine the effect of the subject small molecules (E5A24 and E5A29) on glutamate-induced neuronal death, cortical neurons isolated from embryonic day 18 rats, were cultured for 10 days. Subsequently, neurons were treated for 24 hours with or without the subject small molecules, and further exposed to 300 uM glutamate for 24 hours. After glutamate was washed out, the cells were cultured for another 24 hours. During the glutamate challenge and subsequent culture, the subject small molecules were absent. Finally, the cell viability was examined.

[2] = tested on: carboplatin-treated 8 week old C57BL mice; experiment: Carboplatin induced anemia model (hematocrit); format: in vivo, mouse
Description: Mice were treated with Carboplatin agent (available from Sigma, used regularly in chemotherapy) and a drop in hematocrit was induced. […] (FIGS. 9-11)
Determination of Effect of Non-peptide EPO-R Binding Small Molecule on Hematocrit in Carboplatin-Induced Anemia in 8 Week C57BI Male Mice
Preparation of injection solutions: Vehicle—Saline with 0.1 mg/mL BSA; Add 30 mg of BSA to 300 mL Saline; Vacuum filter under sterile conditions in laminar flow hood; Aliquot the saline (0.1 mg/mL BSA) solution into mini-sorp tubes. At least 41×7 mL aliquots should be prepared. Place caps on the tubes and store refrigerated at 4° C.;
Carboplatin—Dose of 120 mg/kg: Calculations for single injection given to 36 male mice (8 wks old˜25 g): […]×0.025 kg×36 mice=108 mg; Injections are delivered i.p. in a volume of 0.5 cc/mouse=0.5 cc/mouse×36 mice=18 cc; Carboplatin at 6 mg/mL for 36 mice: 108 mg/18 cc.; 120 mg/20 cc; On day of injection, add 120 mg carboplatin (Sigma #C2538) to 20 cc saline in a 100 cc beaker containing a stirring bar. Cover beaker with parafilm. Mix until the carboplatin has completely dissolved.
11 nmole/kg/mouse/day×0.025 kg×12 mice=3.3 nmoles/day; Injections are delivered i.p. in a volume of 0.5 cc/mouse/day=0.5 cc/mouse/day×12 mice=6 cc/day; non-peptide EPO-R binding small molecule for […]: 3.3 nmoles/6 cc each day: 3.85 nmole/7 cc each day; non-peptide EPO-R binding small molecule aliquot at 2 mM=2 nmole/uL; 3.85 nmole per day in 7 cc (0.55 nmole/mL); Therefore: 3.85 nmole divided by 2 nmole/uL stock=1.925 uL at 2 mM; Prepare in advance at least 10 aliquots of non-peptide EPO-R binding small molecule at 2 mM in small microfuge tubes, each with a volume of 2 uL. Freeze these aliquots; On each day of injections, add 1 thawed aliquot of the non-peptide EPO-R binding small molecule at 2 mM containing a 2 uL volume to a tube containing 7 cc of sterile saline (0.1 mg/mL BSA). […]

TF-1 and UT-7 cells = experiment: biological testing in cell lines (cell proliferation assay and cell signaling assay); format: cell-based
From the text: Compounds identified in the initial screen were further tested for their biological activity in two assays: a cell proliferation assay and a cell signaling assay in TF-1 and UT-7 cells. The hit rate in cell proliferation was 0.16%; hit rate in cell signaling was 0.25%.
At the end of the biological testing in cell lines TF-1 and UT-7, E4, E5, E5 analogs and E6 molecules were some of the compounds identified as showing the best activity.
Compounds identified in the initial screen were further tested for their biological activity in two assays: a cell proliferation assay and a cell signaling assay in TF-1 cells. The hit rate in cell proliferation was 0.16%; hit rate in cell signaling was 0.25%.
At the end of the biological testing in cell line, E4, E5, E5 analog, and E6 molecules were some of the compounds identified as showing the best activity.

[3] = tested on: Mouse or human bone marrow cells; experiment: Formation of erythroid colonies (CFU-e, BFU-e) from bone marrow in methylcellulose; format: cell-based; conditions: mouse and human bone marrow
Description: Mouse or human bone marrow cells were stimulated in methylcellulose for 7 days (mouse) or 14 days (human) with non-peptide EPO-R modulators. Formation of erythroid colonies was observed. (See FIGS. 6 to 8)
(1) Dilute human bone marrow 1:1 with sterile PBS. (2) Slowly layer bone marrow into 50 ml tubes containing 20 ml of LSM Lymphocyte separation medium (ICN/Cappel—cat #50494). 50 ml bone marrow will yield 2 tubes. (3) Spin tubes at 2000 rpm for 30 minutes with brake off. (4) Slowly take out the middle layer using a 10 ml pipette and transfer into a new 50 ml tube. (5) Add PBS +0.5% BSA +5 mM EDTA to tube for washing. (6) Spin tube for 5 minutes at speed 4 with brake on. (7) Repeat wash step 2 more times. (8) After 3rd wash, resuspend pellet in SF Iscoves' MDM medium. (9) Count by diluting cells in 3% acetic acid. (10) Dilute cells to desired concentration (5×10^5 cells/ml) and seed onto methylcellulose.
(1) Tubes containing 3.0 ml of methylcellulose medium (Stemcell Technology, cat #H4230) supplemented with 50 ng/ml hSCF are prepared. (Alternatively the methylcellulose could be supplemented with 50 ng/ml hSCF, 20 ng/ml of hIL-3 and hIL-6). (2) Compounds or EPO of desired concentrations are added to the tubes. […] Colonies are scored on day twelve.
Bone marrow cells were isolated from mouse femurs. […] The colonies were scored on day seven. […]

[4] = tested on: P-19 cells (a neural-like embryonal carcinoma cell line); experiment: anti-apoptotic effect in P-19 cells upon withdrawal of serum; format: cell-based; conditions: treated 24 hours prior to serum withdrawal; serum withdrawn for 48 hours
Description: Experiments were performed according to the described protocol. The anti-apoptotic effect of the subject small molecules was evaluated in P-19 cells (a neural-like embryonal carcinoma cell line) that undergo apoptosis upon withdrawal of serum. Briefly, cells were treated with small molecules for 24 hours prior to serum withdrawal. Serum was withdrawn for 48 hours in the presence or absence of a subject small molecule (EM5 and E5A24). At the end of that period, cell survival was evaluated. […] This Figure is representative of the experiment and of the subject small molecules. The experiments were performed according to literature procedures (Siren et. al., Proc. Nat. Acad. Sci. 98, 4044, 2001). Cell survival was determined according to the protocol described for cellular proliferation.

[5] = tested on: Bcl-xL protein in UT-7 and TF-1 cells; experiment: up-regulation of Bcl-xL expression (immunoprecipitation, western blot); format: cell-based
Description: When the subject compounds were tested for anti-apoptotic effect was evaluated, these antibodies were used: Anti-Bcl-XL/s antibody (Santa Cruz Biotechnology, SC-1041), Anti-Bcl-XL antibody (Santa Cruz Biotechnology, SC8392)
A number of molecules of the subject invention were evaluated in in vitro systems that reflect the condition of cerebral ischemia and metabolic stress. Firstly, it is known that one of the mechanisms by which EPO prevents neuronal apoptosis is by up-regulating the expression levels of Bcl-x1 protein, which is a well-described anti-apoptotic protein. Thus, cells-lines that are known to be EPO responsive (UT-7 and TF-1, used in previous studies) were used as a cellular system to examine the small molecules' anti-apoptotic activity through EPO-R.
The evaluation was performed by starving the cells, stimulating the cells with compounds at appropriate concentrations (or no stimulation for control samples) and immunoprecipitating the cell lysates with antibody specific to both forms (short and long) of Bcl-xL protein. The amount of Bcl-xL (long protein form, known to have anti-apoptotic activity) protein was evaluated by western blot analysis.

EPO-R modulating domain = target: T1, EPO-R modulating domain (Homo sapiens, UniProt P19235); conditions: cited from earlier work
T1 sequence (P19235 25-508): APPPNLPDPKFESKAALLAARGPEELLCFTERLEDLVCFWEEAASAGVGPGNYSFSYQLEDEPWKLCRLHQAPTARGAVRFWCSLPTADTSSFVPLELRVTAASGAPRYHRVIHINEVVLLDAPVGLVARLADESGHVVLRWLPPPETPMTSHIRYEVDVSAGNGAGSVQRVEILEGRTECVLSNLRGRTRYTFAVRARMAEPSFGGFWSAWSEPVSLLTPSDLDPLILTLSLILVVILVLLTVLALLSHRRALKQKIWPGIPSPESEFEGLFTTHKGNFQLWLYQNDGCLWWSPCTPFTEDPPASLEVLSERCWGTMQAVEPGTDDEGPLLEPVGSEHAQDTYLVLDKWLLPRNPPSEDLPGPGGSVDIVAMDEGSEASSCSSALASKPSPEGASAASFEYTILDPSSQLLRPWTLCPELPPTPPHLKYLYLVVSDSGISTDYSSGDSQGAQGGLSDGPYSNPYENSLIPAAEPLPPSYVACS

## Cc1n[nH]c2c1C(c1ccco1)C1=C(CC(C)(C)CC1=O)N2 (stereo not drawn) [Compound E5A29]
[1]
  cell survival / glutamate induced neuronal death: prevented glutamate induced neuronal death in a dose-responsive manner; also recorded: increased cell survival
  increase of cell survival after glutamate challenge: 60%

## Cn1ncc(S(=O)Oc2ccccc2)c(Cl)c1=O (stereo not drawn) [Compound E6]
[2]; compound given i.p.
  cooperative effect with EPO on hematocrit levels: cooperative effect
[2]; mouse, in vivo
  hematocrit levels in animals treated with carboplatin: restore hematocrit levels
TF-1 and UT-7 cells; cell line (TF-1 cells)
  maximum activity compared to EPO natural hormone: maximum activity comparable to that of the maximum activity of EPO
TF-1 and UT-7 cells; cell lines TF-1 and UT-7, in the presence of low levels of EPO
  maximum activity compared to EPO natural hormone: maximum activity comparable to that of the maximum activity of EPO
[3]
  CFU-e formation compared with EPO: stimulate CFU-e formation to the same extent as EPO

## Cc1cc(NCC2CC2)n2nc(Nc3cc(Cl)ccc3C)nc2n1 [EM5]
[4]
  cell survival / viability after withdrawal of serum: protect cells from apoptosis; also recorded: increased cell viability
[5]; TF-1 cells
  Bcl-xL expression: up-regulation of Bcl-xL expression
[5]; UT-7 cells
  Bcl-xL expression: up-regulation of Bcl-xL expression
[5]; both cell lines (UT-7 and TF-1)
  up-regulation of Bcl-xL protein: induced up-regulation of Bcl-xL protein in a dose-responsive manner

## QRVEILEGRTECVLSNLRGRTRY (listed as Homo sapiens) [SEQ ID NO:1]
EPO-R modulating domain
  modulation of the activity of the EPO-R: modulation of the activity of the EPO-R in the presence or absence of the ligand
